Assay [1] has as its target GDP-bound KRAS protein (aa 1-169), containing both G12D and C118A amino acid substitutions (Homo sapiens, UniProt P01116, C118A/G12D). As to the kind of experiment: KRAS G12D Coupled Nucleotide Exchange Assay. Type of assay: biochemical. The settings on record: 2 h compound pre-incubation. How it is done:
Following compound pre-incubation, purified SOS protein (aa 564-1049) and GTP (Roche 10106399001) were added to the assay wells and incubated for an additional 30 min. […] The assay plates were then read on a PerkinElmer EnVision Multilabel Reader, using AlphaScreen® technology, and data were analyzed using a 4-parameter logistic model to calculate IC50 values.

The target in assay [2] is His-tagged KRAS G12D protein (Homo sapiens, UniProt P01116, G12D). As to the kind of experiment: KRAS G12D TR-FRET Assay. The class given is binding.
Assay [3] relates to Phosphorylation of ERK1/2 in A-427 cells. As to the kind of experiment: Phospho-ERK1/2 MSD Assay (A-427 cells). The class given is cell-based. The settings on record: Homo sapiens, A-427, 2 h, 2 h treatment, read-out: p-ERK (A427 cells) IC50. Summed up:
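ERK1/2 phosphorylation measured by Meso Scale whole-cell lysate assay after A-427 cells were exposed to a titration of compound for 2 h at 37 °C.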

The test system of assay [4] is Phosphorylation of ERK1/2 in AsPC-1 cells. As to the kind of experiment: Phospho-ERK1/2 MSD Assay (AsPC-1 cells). Type of assay: cell-based. Conditions: Homo sapiens, ASPC1, 2 h, 2 hours treatment, read-out: p-ERK (AsPC-1 cells) IC50. Summed up:
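Read-out: MSD electrochemiluminescent detection of phosphorylated ERK1/2 in whole-cell lysates, fitted to a 4-parameter logistic curve for IC50. Prior to lysis, AsPC-1 cells (25,000 per well) received a 2 h compound dose-response at 37 °C.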

Molecules are shown by their SMILES. Bounds are passed on as bounds.

In general, IC50 refers to the concentration that inhibits the measured activity by half.

Chain of His-tagged KRAS G12D protein (P01116 1-188 isoform P01116-2 G12D): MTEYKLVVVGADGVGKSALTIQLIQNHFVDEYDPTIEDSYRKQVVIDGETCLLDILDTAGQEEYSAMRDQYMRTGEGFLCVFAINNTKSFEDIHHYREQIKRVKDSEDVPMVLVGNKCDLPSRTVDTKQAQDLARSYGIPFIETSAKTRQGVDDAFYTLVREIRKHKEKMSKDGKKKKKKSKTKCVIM
Chain of GDP-bound KRAS protein (aa 1-169), containing both G12D and C118A amino acid substitutions (P01116 1-169 isoform P01116-2 G12D/C118A): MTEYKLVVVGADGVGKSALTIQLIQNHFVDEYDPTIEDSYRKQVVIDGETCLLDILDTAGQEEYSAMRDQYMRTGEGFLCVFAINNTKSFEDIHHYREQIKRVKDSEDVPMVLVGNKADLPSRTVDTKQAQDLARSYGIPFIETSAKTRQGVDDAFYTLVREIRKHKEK

For `Oc1cc(-c2cc3nc(OC[C@@]45CCCN4C[C@H](F)C5)nc(N4C[C@H]5CC[C@@H](C4)N5)c3cc2F)c2ccccc2c1` [Example 42, 4-(4-((1R,5S)-3,8-diazabicyclo[3.2. 1]octan-3-yl)-6-fluoro-2-(((2R,7aS)-2-fluorotetrahydro-1H-pyrrolizin-7a(5H)-yl)methoxy)quinazolin-7-yl)naphthalen-2-ol], the “Avg 2 h Coupled Exchange IC50” value in assay [1] is 3 nM. Further, the IC50 in assay [2] came out at 3 nM; in assay [3], 77 nM; in assay [4] it was 223 nM.
Consider `CCc1c(F)ccc2cc(O)cc(-c3c(Cl)cc4c(N5C[C@H]6CC[C@@H](C5)N6)nc(OC[C@@]56CCCN5C[C@H](F)C6)nc4c3F)c12` [Example 134, 4-(4-((1R,5S)-3,8-diazabicyclo[3.2.1]octan-3-yl)-6-chloro-8-fluoro-2-(((2R,7aS)-2-fluorotetrahydro-1H-pyrrolizin-7a(5H)-yl)methoxy)quinazolin-7-yl)-5-ethyl-6-fluoronaphthalen-2-ol], for which the “Avg 2 h Coupled Exchange IC50” value in assay [1] amounted to 7 nM. In addition, the values for the IC50 in assay [2], in assay [3] and in assay [4] were 4 nM, 57 nM and 74 nM, respectively.
With `Oc1cc(-c2c(F)cc3c(N4C[C@H]5CC[C@@H](C4)N5)nc(OC[C@@]45CCCN4C[C@H](F)C5)nc3c2F)c2c(Cl)cccc2c1` [Example 70, 4-(4-((1R,5S)-3,8-diazabicyclo[3.2. 1]octan-3-yl)-6,8-difluoro-2-(((2R,7aS)-2-fluorotetrahydro-1H-pyrrolizin-7a(5H)-yl)methoxy)quinazolin-7-yl)-5-chloronaphthalen-2-ol], the “Avg 2 h Coupled Exchange IC50” value in assay [1] worked out at 7 nM. Besides, the results for the IC50 in assay [2], in assay [3] and in assay [4] were 3 nM, 12 nM and 49 nM, respectively.
Taken in the same sequence, the figures for `CCc1cccc2cccc(-c3ccc4c(N5C[C@H]6CC[C@@H](C5)N6)nc(OC[C@@]56CCCN5C[C@H](F)C6)nc4c3C)c12` [Example 59, 4-((1R,5S)-3,8-diazabicyclo[3.2. 1]octan-3-yl)-7-(8-ethylnaphthalen-1-yl)-2-(((2R,7aS)-2-fluorotetrahydro-1H-pyrrolizin-7a(5H)-yl)methoxy)-8-methylquinazoline] were 11 nM, 8 nM, 3380 nM and 4160 nM.
For the compound `Cc1c(Cl)cc2[nH]ncc2c1-c1ccc2c(N3C[C@H]4CC[C@@H](C3)N4)nc(OC[C@@]34CCCN3C[C@H](F)C4)nc2c1F` [Example 192, 4-((1R,5S)-3,8-Diazabicyclo[3.2.1]octan-3-yl)-7-(6-chloro-5-methyl-1H-indazol-4-yl)-8-fluoro-2-(((2R,7aS)-2-fluorotetrahydro-1H-pyrrolizin-7a(5H)-yl)methoxy)quinazoline], the “Avg 2 h Coupled Exchange IC50” value in assay [1] was determined as 2 nM. Also, the IC50 stood at 4 nM in assay [2], 150 nM in assay [3] and 532 nM in assay [4].
Taken in the same sequence, the figures for `CCc1c(F)ccc2cc(O)cc(-c3ccc4c(N5C[C@H]6CC[C@@H](C5)N6)cc(OC[C@@]56CCCN5C[C@H](F)C6)nc4c3F)c12` [Example 211, 4-(4-((1R,5S)-3,8-Diazabicyclo[3.2.1]octan-3-yl)-8-fluoro-2-(((2R,7aS)-2-fluorotetrahydro-1H-pyrrolizin-7a(5H)-yl)methoxy)quinolin-7-yl)-5-ethyl-6-fluoronaphthalen-2-ol] were 29 nM, 18 nM, 6290 nM and 8750 nM.
Take `C#Cc1cccc2cc(O)cc(-c3ccc4c(N5[C@@H]6CC[C@H]5CNC6)nc(OC[C@@]56CCCN5C[C@H](F)C6)nc4c3F)c12` [Example 99, 4-(4-((1R,5S)-3,8-Diazabicyclo[3.2.1]octan-8-yl)-8-fluoro-2-(((2R,7aS)-2-fluorotetrahydro-1H-pyrrolizin-7a(5H)-yl)methoxy)quinazolin-7-yl)-5-ethynylnaphthalen-2-ol]: the “Avg 2 h Coupled Exchange IC50” value in assay [1] was 3 nM. The IC50 in assay [2] is 3 nM; in assay [3], 5 nM; in assay [4], 19 nM.
As to `Cc1ccc2[nH]nc(N)c2c1-c1ccc2c(N3C[C@H]4CC[C@@H](C3)N4)nc(OC[C@@]34CCCN3C[C@H](F)C4)nc2c1F` [Example 226, 4-(4-((1R,5S)-3,8-diazabicyclo[3.2.1]octan-3-yl)-8-fluoro-2-(((2R,7aS)-2-fluorotetrahydro-1H-pyrrolizin-7a(5H)-yl)methoxy)quinazolin-7-yl)-5-methyl-1H-indazol-3-amine], in assay [1], the “Avg 2 h Coupled Exchange IC50” value came out at 7 nM. Also, the IC50 in assay [2] is 44 nM; in assay [3], over 10000 nM; in assay [4] it was over 10000 nM.
Take `Oc1cc(-c2c(F)cc3c(N4C[C@@H]5CC[C@H]4CN5)nc(OC[C@@]45CCCN4C[C@H](F)C5)nc3c2F)c2ccccc2c1` [Example 48, 4-(4-((1S,4S)-2,5-diazabicyclo[2.2. 2]octan-2-yl)-6,8-difluoro-2-(((2R,7aS)-2-fluorotetrahydro-1H-pyrrolizin-7a(5H)-yl)methoxy)quinazolin-7-yl)naphthalen-2-ol]: the “Avg 2 h Coupled Exchange IC50” value in assay [1] amounted to 4 nM. The IC50 turned out to be 4 nM in assay [2], 43 nM in assay [3] and 157 nM in assay [4].
Take `CCc1cccc2cc(O)cc(-c3cc4nc(OC[C@@]56CCCN5C[C@H](F)C6)nc(N5C[C@H]6CC[C@@H](C5)N6)c4cc3F)c12` [Example 171, 4-(4-((1R,5S)-3,8-diazabicyclo[3.2.1]octan-3-yl)-6-fluoro-2-(((2R,7aS)-2-fluorotetrahydro-1H-pyrrolizin-7a(5H)-yl)methoxy)quinazolin-7-yl)-5-ethylnaphthalen-2-ol]: the “Avg 2 h Coupled Exchange IC50” value in assay [1] is 3 nM. The IC50 is 6 nM in assay [2], 42 nM in assay [3] and 169 nM in assay [4].
Taken in the same sequence, the figures for `CCc1cccc2cc(O)cc(-c3c(F)cc4c(N5C[C@H]6CC[C@@H](C5)N6)nc(OC[C@@]56CCCN5C[C@H](F)C6)nc4c3F)c12` [Example 147, 4-(4-((1R,5S)-3,8-diazabicyclo[3.2.1]octan-3-yl)-6,8-difluoro-2-(((2R,7aS)-2-fluorotetrahydro-1H-pyrrolizin-7a(5H)-yl)methoxy)quinazolin-7-yl)-5-ethylnaphthalen-2-ol] were 2 nM, 3 nM, 3 nM and 25 nM.
For `Oc1cc(-c2cc3nc(OC[C@@]45CCCN4C[C@H](F)C5)nc(N4C[C@H]5CC[C@@H](C4)N5)c3cc2F)c2c(F)c(F)ccc2c1` [Example 82, 4-(4-((1R,5S)-3,8-diazabicyclo[3.2. 1]octan-3-yl)-6-fluoro-2-(((2R,7aS)-2-fluorotetrahydro-1H-pyrrolizin-7a(5H)-yl)methoxy)quinazolin-7-yl)-5,6-difluoronaphthalen-2-ol], the “Avg 2 h Coupled Exchange IC50” value in assay [1] came out at 2 nM. The results for the IC50 in assay [2], in assay [3] and in assay [4] were 2 nM, 42 nM and 138 nM, respectively.
For the compound `Oc1cc(-c2ccc3c(N4C[C@@H]5CC[C@H]4CN5)nc(OC[C@@]45CCCN4C[C@H](F)C5)nc3c2)c2c(F)c(F)ccc2c1` [Example 113, 4-(4-((1S,4S)-2,5-diazabicyclo[2.2.2]octan-2-yl)-2-(((2R,7aS)-2-fluorotetrahydro-1H-pyrrolizin-7a(5H)-yl)methoxy)quinazolin-7-yl)-5,6-difluoronaphthalen-2-ol], the “Avg 2 h Coupled Exchange IC50” value in assay [1] was 2 nM. In addition, the IC50 stood at 3 nM in assay [2], 102 nM in assay [3] and 453 nM in assay [4].
`CCc1c(F)ccc2cc(O)cc(-c3ccc4c(N5C[C@@H]6CC[C@H]5CN6)nc(OC[C@@]56CCCN5C[C@H](F)C6)nc4c3)c12` [Example 112, 4-(4-((1S,4S)-2,5-diazabicyclo[2.2.2]octan-2-yl)-2-(((2R,7aS)-2-fluorotetrahydro-1H-pyrrolizin-7a(5H)-yl)methoxy)quinazolin-7-yl)-5-ethyl-6-fluoronaphthalen-2-ol]: the “Avg 2 h Coupled Exchange IC50” value in assay [1] came out at 2 nM. Further, the IC50 in assay [2] was 2 nM; in assay [3], 37 nM; in assay [4], 90 nM.
For the compound `Oc1cc(-c2ccc3c(N4[C@@H]5CNC[C@H]4COC5)nc(OCC45CCCN4CC(F)(F)C5)nc3c2F)c2ccccc2c1` (stereo partly drawn) [Example 10, 4-(4-((1R,5S)-3-oxa-7,9-diazabicyclo[3.3. 1]nonan-9-yl)-2-((2,2-difluorotetrahydro-1H-pyrrolizin-7a(5H)-yl)methoxy)-8-fluoroquinazolin-7-yl)naphthalen-2-ol], the “Avg 2 h Coupled Exchange IC50” value in assay [1] is 132 nM. For the same compound, the IC50 in assay [2] came to 106 nM; in assay [3] it was 5240 nM; in assay [4], 6270 nM.
On to `CCc1c(F)ccc2cc(O)cc(-c3ccc4c(N5[C@@H]6CC[C@H]5CNC6)nc(OC[C@@]56CCCN5C[C@H](F)C6)nc4c3C)c12` [Example 161, 4-(4-((1R,5S)-3,8-diazabicyclo[3.2.1]octan-8-yl)-2-(((2R,7aS)-2-fluorotetrahydro-1H-pyrrolizin-7a(5H)-yl)methoxy)-8-methylquinazolin-7-yl)-5-ethyl-6-fluoronaphthalen-2-ol], for which the “Avg 2 h Coupled Exchange IC50” value in assay [1] came out at 79 nM. The IC50 in assay [2] was found to be 75 nM; in assay [3], 10000 nM; in assay [4], 9750 nM.

Values taken from US20250059205A1, “Heterocyclic Compounds and Methods of Use” (AMGEN INC., priority 2021, published 2025).
